Data: patent US8911342B2, “Apparatus and method for pulsed electrical field treatment” (Re5 ApS, priority 2009, dated 2014)

System: Human neural cells line from sympatic ganglia - SHSY-5Y
Conditions: sertraline 10 μM 24 hours, then PEMF 2 hrs at 50 or 55 Hz, vs control cells, PCR array

CN[C@H]1CC[C@@H](c2ccc(Cl)c(Cl)c2)c2ccccc21 [sertraline, (1S,4S)-4-(3,4-dichlorophenyl)-N-methyl-1,2,3,4-tetrahydronaphthalen-1-amine]
Fold increase in mRNA, Bone morphonogenic Protein 1 (BMP1): 4 fold | Fold increase in mRNA, Bone morphonogenic Protein 5 (BMP5): 8 fold | Fold increase in mRNA, IL-17B: 8 fold | Fold increase in mRNA, IL-18: 4 fold | Fold increase in mRNA, IL-20: 4 fold | Fold increase in mRNA, IL-21: 4 fold | Fold increase in mRNA, Il-8: 8 fold | Fold increase in mRNA, Interleukin 10 (IL-10): 1 fold | Fold increase in mRNA, TNF SF10: 8 fold | Fold increase in mRNA, TNF SF11: 2 fold | Fold increase in mRNA, TNFR SF11: 8 fold | Fold increase in mRNA, Transforming growth factor beta 3 (TGFB3): 5 fold | Fold increase in mRNA, Tumor necrosis factor (TNF): 8 fold
